Test results reported in US20200333324A1, “METHOD OF PREDICTING CLINICAL OUTCOME OF ANTICANCER AGENTS” (MITRA RXDX, INC., priority 2017, published 2020).

Legend:
Type in all cases: cell-based, human
[1] = tested on: HNSCC tumor tissue; assay: M-score clinical outcome predictor: tumor microenvironment platform assays (WST-1, LDH, ATP, glucose uptake, Caspase 3/8, Ki67, H&E) input into machine-trained algorithm; set-up: scale not given here
Source text: Utilizing primary and late stage HNSCC patient samples (n=16) we interrogated phenotypic response to both Pembrolizumab (KEYTRUDA) and Nivolumab (OPDIVO), two FDA-approved PD-1 inhibitors, as single agents on the tumor microenvironment platform with tumor tissue from the same patient. To do this, we assayed tumor proliferation (Ki67) and apoptosis (active caspase-3), in addition to using a comprehensive panel of immunological assays to evaluate changes in the immune compartment (CD8, CD45, FOXP3, CXCR4, CD68, PDL1, PD1) and cytokine profile (IL6, IL8, IFN-g and IL12).

[2] = tested on: HNSCC tumor tissue; assay: IHC for CD8, PD-L1, PD-1 and FOXP3 positive cells in tumor microenvironment platform; conditions: T3; for number of PD-1^+ cells in the tumor microbed: vs IgG control
Experimental: The effect of Pembrolizumab and Nivolumab on CD8^+ T cell tumor infiltration was then evaluated. Tumor sections from the same patient cultured for 72 hours in the tumor microenvironment platform were treated with Pembrolizumab, Nivolumab, or IgG as control and stained for H&E, Ki67, Caspase 3, and CD8 at day 3 in culture (T3). Baseline staining was determined at TO. […] To further elucidate the effects of the anti-PD-1 antibodies, FACS analysis was performed on tumor tissue from patient 2941 and patient 2942 treated with either Pembrolizumab, Nivolumab, or IgG control. […] By contrast, there was no effect of either Pembrolizumab or Nivolumab on CD8^+ T cell infiltration for patient 2942, further highlighting the differential response between individuals to PD-1 blockade. CD8^+ T cell infiltration was evaluated in the tumor microenvironment platform with tumor tissue from the same patient, and comparisons for control vs Nivo, control vs Pembro, Nivo vs Pembro, and control vs Nivo vs Pembro for multiple patients are shown in FIG. 6 (each line represents results from the tumor microenvironment platform cultured with tumor tissue from a single individual).
The effect of Pembrolizumab and Nivolumab on the expression of immunoregulatory molecules, including PD-1 and FOXP3, in the tumor microenvironment platform tumor microbed was evaluated. Tumor sections from the same patient cultured for 3 days (72 hours) in the tumor microenvironment platform were treated with Pembrolizumab, Nivolumab, or IgG control and stained for CD8, FOXP3, and PD-1 at day 3 in culture (T3). Baseline staining was determined at TO. Results are shown in FIG. 7A for tumor sections from a predicted responder to Pembrolizumab or Nivolumab and FIG. 7B for a predicted non-responder to Pembrolizumab or Nivolumab, as characterized by M-score. There was in increase in the number of PD-1^+ cells in the tumor microbed for both Pembrolizumab and Nivolumab, which was to a greater degree in the case of Nivolumab, when compared to IgG control in the responder (FIG. 7A). There was no change for either Pembrolizumab and Nivolumab in the non-responder (FIG. 7B). The numbers of PD-L1^+ tumor cells, PD-1^+ T cells, FOXP3^+ T-regulatory cells, and CD8^+ T cells were evaluated using the tumor microenvironment platform with tumor tissue from the same patient in Nivolumab, Pembrolizumab, and control conditions, and are summarized in Table 3. Comparisons for control vs Nivo, control vs Pembro, Nivo vs Pembro, and control vs Nivo vs Pembro for multiple patients are shown in FIG. 8 (each line represents results from the tumor microenvironment platform cultured with tumor tissue from a single individual).

[3] = tested on: HNSCC tumor tissue; assay: Granzyme B and Perforin secretion assays, HNSCC tumor sections in tumor microenvironment platform; conditions: 48 hours
Experimental: FIGS. 9A and 9B show quantification of results for Granzyme B and Perforin secretion assays for HNSCC tumor tissue cultured in the tumor microenvironment platform treated with Pembrolizumab, Nivolumab, or IgG control for 24 or 48 hours.
HNSCC tumor sections from the same patient cultured for 24 or 48 hours in the tumor microenvironment platform with Pembrolizumab, Nivolumab, or IgG as control were assayed for Granzyme B and Perforin secretion. Results are shown in FIG. 9A for the tumor microenvironment platform with tumor tissue from a predicted responder and FIG. 9B for the tumor microenvironment platform with tumor tissue from a predicted non-responder. After treatment with Pembrolizumab for 48 hours, there was an increase in both Granzyme B and Perforin secretion in the tumor microenvironment platform with tissue from the predicted responder compared to treatment with the control IgG. By contrast, at 48 hours in the tumor microenvironment platform with tissue from the predicted non-responder there was no increase in Granzyme B or Perforin secretion for treatment with either Pembrolizumab or Nivolumab.

[4] = predicted responder, compared to control IgG

Substance: Pembrolizumab
- M-score ([1]; Patient ID 2918): 13
- M-score ([1]; Patient ID 2928): 16
- M-score ([1]; Patient ID 2941): 38
- M-score ([1]; Patient ID 2948): 4
- M-score ([1]; Patient ID 2949): 6
- M-score ([1]; Patient ID 2956): 6
- M-score ([1]; Patient ID 2978): 22
- M-score ([1]; Patient ID 2981): 7
- # cells/field PD-1^+ ([2]; Patient ID 2916, control 0): 0 cells/field
- # cells/field PD-L1^+ ([2]; Patient ID 2916, control 1): 2 cells/field
- # cells/field FOXP3^+ ([2]; Patient ID 2916, control 3): 2 cells/field
- # cells/field CD8^+ ([2]; Patient ID 2916, control 20): 18 cells/field
- # cells/field PD-1^+ ([2]; Patient ID 2918, control 2): 0 cells/field
- # cells/field FOXP3^+ ([2]; Patient ID 2918, control 3): 3 cells/field
- # cells/field CD8^+ ([2]; Patient ID 2918, control 10): 14 cells/field
- # cells/field PD-L1^+ ([2]; Patient ID 2918, control 10): 10 cells/field
- # cells/field PD-1^+ ([2]; Patient ID 2926, control 0): 0 cells/field
- # cells/field PD-L1^+ ([2]; Patient ID 2926, control 3): 1 cells/field
- # cells/field FOXP3^+ ([2]; Patient ID 2926, control 4): 10 cells/field
- # cells/field CD8^+ ([2]; Patient ID 2926, control 25): 5 cells/field
- # cells/field PD-1^+ ([2]; Patient ID 2928, control 0): 0 cells/field
- # cells/field PD-L1^+ ([2]; Patient ID 2928, control 0): 1 cells/field
- # cells/field CD8^+ ([2]; Patient ID 2928, control 4): 1 cells/field
- # cells/field FOXP3^+ ([2]; Patient ID 2928, control 4): 1 cells/field
- # cells/field CD8^+ ([2]; Patient ID 2939, control 0): 5 cells/field
- # cells/field PD-1^+ ([2]; Patient ID 2939, control 0): 0 cells/field
- # cells/field FOXP3^+ ([2]; Patient ID 2939, control 1): 1 cells/field
- # cells/field PD-L1^+ ([2]; Patient ID 2939, control 10): 15 cells/field
- # cells/field PD-1^+ ([2]; Patient ID 2941, control 0): 1 cells/field
- # cells/field FOXP3^+ ([2]; Patient ID 2941, control 3): 4 cells/field
- # cells/field PD-L1^+ ([2]; Patient ID 2941, control 3): 6 cells/field
- # cells/field CD8^+ ([2]; Patient ID 2941, control 5): 7 cells/field
- # cells/field PD-1^+ ([2]; Patient ID 2942, control 0): 0 cells/field
- # cells/field PD-L1^+ ([2]; Patient ID 2942, control 0): 0 cells/field
- # cells/field CD8^+ ([2]; Patient ID 2942, control 3): 2 cells/field
- # cells/field FOXP3^+ ([2]; Patient ID 2942, control 3): 2 cells/field
- # cells/field FOXP3^+ ([2]; Patient ID 2948, control 1): 3 cells/field
- # cells/field PD-1^+ ([2]; Patient ID 2948, control 1): 0 cells/field
- # cells/field PD-L1^+ ([2]; Patient ID 2948, control 10): 1 cells/field
- # cells/field CD8^+ ([2]; Patient ID 2948, control 20): 25 cells/field
- # cells/field PD-1^+ ([2]; Patient ID 2949, control 1): 6 cells/field
- # cells/field FOXP3^+ ([2]; Patient ID 2949, control 5): 3 cells/field
- # cells/field PD-L1^+ ([2]; Patient ID 2949, control 20): 28 cells/field
- # cells/field CD8^+ ([2]; Patient ID 2949, control 50): 40 cells/field
- # cells/field PD-1^+ ([2]; Patient ID 2956, control 0): 0 cells/field
- # cells/field CD8^+ ([2]; Patient ID 2956, control 1): 1 cells/field
- # cells/field PD-L1^+ ([2]; Patient ID 2956, control 2): 0 cells/field
- # cells/field FOXP3^+ ([2]; Patient ID 2956, control 8): 1 cells/field
- # cells/field PD-1^+ ([2]; Patient ID 2963, control 0): 0 cells/field
- # cells/field CD8^+ ([2]; Patient ID 2963, control 6): 2 cells/field
- # cells/field FOXP3^+ ([2]; Patient ID 2963, control 10): 2 cells/field
- # cells/field PD-L1^+ ([2]; Patient ID 2963, control 12): 10 cells/field
- # cells/field PD-1^+ ([2]; Patient ID 2978, control 0): 0 cells/field
- # cells/field FOXP3^+ ([2]; Patient ID 2978, control 1): 2 cells/field
- # cells/field PD-L1^+ ([2]; Patient ID 2978, control 1): 1 cells/field
- # cells/field CD8^+ ([2]; Patient ID 2978, control 12): 22 cells/field
- # cells/field PD-1^+ ([2]; Patient ID 2979, control 0): 0 cells/field
- # cells/field FOXP3^+ ([2]; Patient ID 2979, control 2): 3 cells/field
- # cells/field PD-L1^+ ([2]; Patient ID 2979, control 5): 8 cells/field
- # cells/field CD8^+ ([2]; Patient ID 2979, control 25): 10 cells/field
- # cells/field PD-1^+ ([2]; Patient ID 2980, control 0): 0 cells/field
- # cells/field FOXP3^+ ([2]; Patient ID 2980, control 1): 2 cells/field
- # cells/field PD-L1^+ ([2]; Patient ID 2980, control 8): 2 cells/field
- # cells/field CD8^+ ([2]; Patient ID 2980, control 30): 8 cells/field
- # cells/field FOXP3^+ ([2]; Patient ID 2981, control 0): 1 cells/field
- # cells/field PD-1^+ ([2]; Patient ID 2981, control 0): 0 cells/field
- # cells/field PD-L1^+ ([2]; Patient ID 2981, control 0): 0 cells/field
- # cells/field CD8^+ ([2]; Patient ID 2981, control 1): 12 cells/field
- number of PD-1^+ cells in the tumor microbed ([2]; predicted non-responder): no change
- number of PD-1^+ cells in the tumor microbed ([2]; predicted responder, to a greater degree in the case of Nivolumab): increase
- Granzyme B secretion ([3]; predicted non-responder): no increase
- Perforin secretion ([3]; predicted non-responder): no increase
- Granzyme B secretion [3, 4]: increase
- Perforin secretion [3, 4]: increase
